Consider 28 compounds from patent publication US8481731B2, “Compounds, pharmaceutical composition and methods relating thereto” (Boehringer Ingelheim International GmbH, priority 2009, dated 2013).

Structures are written as SMILES. Marks after values point to notes of the source that are not given here.

For one assay, the target named is T1, human GPR119 receptor (Homo sapiens, UniProt Q8TDV5, S329A/T327A).
T1 construct: N-terminal leader […]; expressed in transfected cells
T1 sequence (Q8TDV5 with tags, fused parts or gaps T327A/S329A): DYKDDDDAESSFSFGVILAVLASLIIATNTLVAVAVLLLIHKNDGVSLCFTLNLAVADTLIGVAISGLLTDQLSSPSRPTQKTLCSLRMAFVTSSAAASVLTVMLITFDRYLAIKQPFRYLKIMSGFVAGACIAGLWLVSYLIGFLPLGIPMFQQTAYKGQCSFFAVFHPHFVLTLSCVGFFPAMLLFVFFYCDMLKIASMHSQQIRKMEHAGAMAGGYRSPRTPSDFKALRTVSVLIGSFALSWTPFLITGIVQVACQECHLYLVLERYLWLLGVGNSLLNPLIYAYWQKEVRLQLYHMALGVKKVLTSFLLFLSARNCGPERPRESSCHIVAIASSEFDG
The assay can be described thus: cAMP assay (LANCE cAMP-384 Kit), cAMP accumulation in HEK293 cells stably expressing mutant human GPR119 receptor. The assay is classed as cell-based. The settings on record: cAMP accumulation; HEK293 cells stably expressing a mutant form of the human GPR119 receptor; 20 min at 37° C. The method, then: Quantitative detection of cAMP accumulation from cells expressing human GPR119 receptor was achieved using Perkin Elmer's LANCE cAMP-384 Kit (Cat#AD0264) according to the manufacturer's protocol. Briefly, HEK293 cells stably expressing a mutant form of the human GPR119 receptor (Methionine 1 replaced with the amino acid sequence […], and T327 & S329 changed to alanines) were grown to 50-70% confluency in cell culture media (DMEM, 10% heat inactivated Fetal Bovine Serum, 50 I.U./mL penicillin, 50 μg/mL streptomycin, 10 mM HEPES, 20 μg/mL G418 Sulfate). On the day of the assay, GPR119 stable HEK293 cells were lifted from the tissue culture plate and 1000 cells/well were incubated along with various concentrations of test compounds for 20 min at 37° C. Detection Buffer (50 mM HEPES, 10 mM calcium chloride, 0.35% Triton X-100, 1 mg/mL BSA) containing cAMP-specific antibody was then added to all wells and allowed to equilibrate in the dark for 10 minutes at room temperature. Upon equilibration, Detection Buffer containing europium-labeled cAMP tracer complex was added to all wells and allowed to react for 1 hour at room temperature. After 1 hour, bound europium-labeled cAMP tracer was measured using a Perkin Elmer ViewLux. The quantity of cAMP generated in each well was derived from a standard curve.
For some compounds for which no EC50 value could be determined, the efficacy is provided at a single concentration (10 μM) yielding % stimulation values.
(In general: Changes in cAMP serve as a functional read-out for many G protein-coupled receptors.)
The EC50 is the concentration that produces a half-maximal response. In turn, `CC(C)OC(=O)N1CCC(N(C)c2cc(N3CCc4cc(S(C)(=O)=O)ccc43)ncn2)CC1` [Compound 7-1, 4-[6-(5-Methanesulfonyl-2,3-dihydro-indol-1-yl)-pyrimidin-4-yl-methylamino]-piperidine-1-carboxylic acid isopropyl ester] registered an EC50 of 69 nM. That is a double-digit nanomolar value.
Take `CC(C)OC(=O)N1CCC(Oc2cc(N3CCc4cc(S(C)(=O)=O)ccc43)ncn2)CC1` [Compound 4-1, 4-[6-(5-Methanesulfonyl-2,3-dihydro-indol-1-yl)-pyrimidin-4-yloxy]-piperidine-1-carboxylic acid isopropyl ester]: the midpoint of the response, the EC50, lay at 33 nM.
On the same count and under the same terms, the same measure for `CCC(C)N(c1cc(N2CCc3cc(S(C)(=O)=O)ccc32)ncn1)C1CCN(C(=O)OC(C)(C)C)CC1` (stereo not shown) [Compound 16-4]: 95 nM.
The same measure, in the same setting: in the case of `CS(=O)(=O)c1ccc2c(c1)CCN2c1cc(OC2CCN(C(=O)OC3CCN(Cc4ccc(F)cc4)C3)CC2)ncn1` (stereo not shown) [Compound 21-3] it was 335 nM; in that of `CC(C)OC(=O)N1CCC(Nc2cc(N3CCc4cc(S(C)(=O)=O)ccc43)ncn2)CC1` [Compound 6-1, 4-[6-(5-Methanesulfonyl-2,3-dihydro-indol-1-yl)-pyrimidin-4-ylamino]-piperidine-1-carboxylic acid isopropyl ester], 611 nM; in that of `Cc1c(OC2CCN(C(=O)OC(C)C)CC2)ncnc1N1CCc2ncccc21` [Compound 9-2, 4-[6-(2,3-Dihydro-pyrrolo[3,2-b]pyridin-1-yl)-5-methyl-pyrimidin-4-yloxy]-piperidine-1-carboxylic acid isopropyl ester], 312 nM.
`CC(C)(C)OC(=O)N1CCC(Oc2ncnc(N3CCc4cc(S(C)(=O)=O)ccc43)c2F)CC1` [Compound 13-1, 4-[5-Fluoro-6-(5-methanesulfonyl-2,3-dihydro-indol-1-yl)-pyrimidin-4-yloxy]-piperidine-1-carboxylic acid tert-butyl ester] displayed a concentration giving a half-maximal response (EC50) of 382 nM.
`CN(c1cc(N2CCc3cc(S(C)(=O)=O)ccc32)ncn1)C1CCN(C(=O)OC(C)(C)C)CC1` [Compound 16-1, 4-{[6-(5-Methanesulfonyl-2,3-dihydro-indol-1-yl)-pyrimidin-4-yl]-methyl-amino}-piperidine-1-carboxylic acid tert-butyl ester] returned an EC50 of 51 nM.
On the same count and under the same terms, the same measure for `CS(=O)(=O)c1ccc2c(c1)CCN2c1cc(OC2CCN(C(=O)OC3CCN(Cc4cccc(F)c4)C3)CC2)ncn1` (stereo not shown) [Compound 21-2]: 278 nM; for `CS(=O)(=O)c1ccc2c(c1)CCN2c1cc(OC2CCN(C(=O)OC(CF)CF)CC2)ncn1` [Compound 5-5]: 242 nM; for `C=CCN(c1cc(N2CCc3cc(S(C)(=O)=O)ccc32)ncn1)C1CCN(C(=O)OC(C)(C)C)CC1` [Compound 16-5]: 23 nM.
The same measure, in the same setting: the same measure for `COCC(C)OC(=O)N1CCC(Oc2cc(N3CCc4cc(S(C)(=O)=O)ccc43)ncn2)CC1` (stereo not shown) [Compound 5-4]: 100 nM; for `CC(C)OC(=O)N1CCC(Oc2ccnc(N3CCc4cc(S(C)(=O)=O)ccc43)c2)CC1` [Compound 10-1, 4-[2-(5-Methanesulfonyl-2,3-dihydro-indol-1-yl)-pyridin-4-yloxy]-piperidine-1-carboxylic acid isopropyl ester]: 588 nM; for `CS(=O)(=O)c1ccc2c(c1)CCN2c1cc(OC2CCN(C(=O)OCC3CC3)CC2)ncn1` [Compound 5-2]: 23 nM.
Still for that read-out and setting: the same measure for `CS(=O)(=O)c1ccc2c(c1)CCN2c1cc(OC2CCN(C(=O)OC3CCN(Cc4cccc(F)c4F)C3)CC2)ncn1` (stereo not shown) [Compound 21-4]: 343 nM; for `COc1c(OC2CCN(C(=O)OC(C)C)CC2)ncnc1N1CCc2cc(S(C)(=O)=O)ccc21` [Compound 8-1, 4-[6-(5-Methanesulfonyl-2,3-dihydro-indol-1-yl)-5-methoxy-pyrimidin-4-yloxy]-piperidine-1-carboxylic acid isopropyl ester]: 201 nM; for `CCN(c1cc(N2CCc3cc(S(C)(=O)=O)ccc32)ncn1)C1CCN(C(=O)OC(C)(C)C)CC1` [Compound 16-2]: 29 nM.
As for `COCN(c1cc(N2CCc3cc(S(C)(=O)=O)ccc32)ncn1)C1CCN(C(=O)OC(C)(C)C)CC1` [Compound 16-3], the EC50 was found to be 906 nM.
Still for that read-out and setting: in the case of `CC(C)(C)OC(=O)N1CCC(Oc2cc(N3CCc4nc(Cl)ccc43)ncn2)CC1` [Compound 20-1, 4-[6-(5-Chloro-2,3-dihydro-pyrrolo[3,2-b]pyridin-1-yl)-pyrimidin-4-yloxy]-piperidine-1-carboxylic acid tert-butyl ester] it was 751 nM; in that of `CS(=O)(=O)c1ccc2c(c1)CCN2c1cc(OC2CCN(C(=O)OC3CCN(Cc4cc(F)cc(F)c4)C3)CC2)ncn1` (stereo not shown) [Compound 21-5], 308 nM.
On the same count and under the same terms, the same measure for `CC(C)COC(=O)N1CCC(Oc2cc(N3CCc4cc(S(C)(=O)=O)ccc43)ncn2)CC1` [Compound 4-2]: 42 nM; for `CCC(C)OC(=O)N1CCC(Oc2cc(N3CCc4cc(S(C)(=O)=O)ccc43)ncn2)CC1` (stereo not shown) [Compound 5-3]: 35 nM; for `CS(=O)(=O)c1ccc2c(c1)CCN2c1cc(OC2CCN(C(=O)OC3CCC3)CC2)ncn1` [Compound 5-1, 4-[6-(5-Methanesulfonyl-2,3-dihydro-indol-1-yl)-pyrimidin-4-yloxy]-piperidine-1-carboxylic acid cyclobutyl ester]: 24 nM.

The same assay, now with this note: single concentration 10 μM; given where no EC50 value could be determined; HEK293 cells expressing mutant human GPR119.
On to `CC(C)(C)OC(=O)N1CC(Oc2cc(N3CCc4cc(S(C)(=O)=O)ccc43)ncn2)C1` [Compound 15-1, 3-[6-(5-Methanesulfonyl-2,3-dihydro-indol-1-yl)-pyrimidin-4-yloxy]-azetidine-1-carboxylic acid tert-butyl ester], for which the “% stimulation at 10 μM” value was 22%.
On the same count and under the same terms, the same measure for `CS(=O)(=O)c1ccc2c(c1)CCN2c1cc(OC2CCN(C(=O)OC3CCN(Cc4ccccc4F)C3)CC2)ncn1` (stereo not shown) [Compound 21-1, 4-[6-(5-Methanesulfonyl-2,3-dihydro-indol-1-yl)-pyrimidin-4-yloxy]-piperidine-1-carboxylic acid 1-(2-fluoro-benzyl)-pyrrolidin-3-yl ester]: 78%*; for `CC(C)(C)OC(=O)N1CC[C@@H](Oc2cc(N3CCc4cc(S(C)(=O)=O)ccc43)ncn2)C1` [Compound 15-2, (R)-3-[6-(5-Methanesulfonyl-2,3-dihydro-indol-1-yl)-pyrimidin-4-yloxy]-pyrrolidine-1-carboxylic acid tert-butyl ester]: 26%.
The same measure, in the same setting: the same measure for `CS(=O)(=O)c1ccc2c(c1)CCN2c1cc(OC2CCN(C(=O)OC3CCN(Cc4c(F)cccc4F)C3)CC2)ncn1` (stereo not shown) [Compound 21-6]: 84%*; for `CC(C)OC(=O)N1CCC(Oc2cc(N3CCc4cc(S(C)(=O)=O)ccc43)ncc2C#N)CC1` [Compound 24-1, 4-[5-Cyano-2-(5-methanesulfonyl-2,3-dihydro-indol-1-yl)-pyridin-4-yloxy]-piperidine-1-carboxylic acid isopropyl ester]: 54%.
